Test results from publication PMC5988656, “Phase I studies of AZD1208, a proviral integration Moloney virus kinase inhibitor in solid and haematological cancers” (British Journal of Cancer, 2018).

System: patients with recurrent or refractory AML
Assay: AML dose-escalation study: safety and tolerability (AEs, DLTs)
Assay type: in vivo, human
Source text: Conducted at three centres in the USA and one in Canada. Dose escalation followed a conventional 3 + 3 design. […] In the first cohort, dosing between the first and subsequent patients was staggered with a 7-day interval. Dose-escalation decisions were based on the safety and tolerability data from ≥3 evaluable patients (or six if one of the first three patients experienced a dose-limiting toxicity [DLT]).
AZD1208 could be escalated by up to 100% in subsequent cohorts until one DLT was observed, after which succeeding doses were escalated by up to 50%.
In the case of a DLT, the cohort was expanded to six patients. If a DLT occurred in ≥2 patients within a cohort, the dose was determined to be a non-tolerated dose (NTD) and dose escalation was stopped.
Grade 3 or 4 toxicities not attributable to the disease or disease-related processes under investigation, and occurring before the end of Cycle 1, were considered DLTs.
The NTD was identified as the dose at which ≥2 DLTs occurred in a given cohort.

N[C@@H]1CCCN(c2c(/C=C3\SC(=O)NC3=O)cccc2-c2ccccc2)C1 [AZD1208]
Hyperglycaemia (all-grade AE) (700 mg, n = 7): 1 (14.3) n (%)
Hypocalcaemia (all-grade AE) (700 mg, n = 7): 3 (42.9) n (%)
Hypokalaemia (all-grade AE) (700 mg, n = 7): 2 (28.6) n (%)
Hypomagnesaemia (all-grade AE) (700 mg, n = 7): 2 (28.6) n (%)
Hypophosphataemia (all-grade AE) (700 mg, n = 7): 1 (14.3) n (%)
Hypotension (all-grade AE) (700 mg, n = 7): 3 (42.9) n (%)
Maculopapular rash (all-grade AE) (700 mg, n = 7): 2 (28.6) n (%)
Nausea (all-grade AE) (700 mg, n = 7): 5 (71.4) n (%)
Oedema peripheral (all-grade AE) (700 mg, n = 7): 2 (28.6) n (%)
Patients with any AE (all-grade AE) (700 mg, n = 7): 7 (100.0) n (%)
Pneumonia (all-grade AE) (700 mg, n = 7): 0 n (%)
Pyrexia (all-grade AE) (700 mg, n = 7): 0 n (%)
Rash (all-grade AE) (700 mg, n = 7): 1 (14.3) n (%)
Renal failure acute (all-grade AE) (700 mg, n = 7): 1 (14.3) n (%)
Stomatitis (all-grade AE) (700 mg, n = 7): 0 n (%)
Vision blurred (all-grade AE) (700 mg, n = 7): 0 n (%)
Vomiting (all-grade AE) (700 mg, n = 7): 2 (28.6) n (%)
Patients in whom AZD1208 was discontinued as a result of SAEs and AEs (900 mg (acute coronary syndrome, rash)): 2 n
Tolerability (900 mg QD): not tolerated
Abdominal pain (all-grade AE) (900 mg, n = 9): 1 (11.1) n (%)
Asthenia (all-grade AE) (900 mg, n = 9): 2 (22.2) n (%)
Chills (all-grade AE) (900 mg, n = 9): 2 (22.2) n (%)
Cough (all-grade AE) (900 mg, n = 9): 2 (22.2) n (%)
DLT detail, action taken (900 mg, n = 9): Rash, drug permanently discontinued; maculopapular rash, drug permanently discontinued
Decreased appetite (all-grade AE) (900 mg, n = 9): 1 (11.1) n (%)
Dehydration (all-grade AE) (900 mg, n = 9): 4 (44.4) n (%)
Diarrhoea (all-grade AE) (900 mg, n = 9): 4 (44.4) n (%)
Dyspnoea (all-grade AE) (900 mg, n = 9): 2 (22.2) n (%)
Fatigue (all-grade AE) (900 mg, n = 9): 2 (22.2) n (%)
Febrile neutropenia (all-grade AE) (900 mg, n = 9): 3 (33.3) n (%)
Headache (all-grade AE) (900 mg, n = 9): 0 n (%)
Hyperglycaemia (all-grade AE) (900 mg, n = 9): 2 (22.2) n (%)
Hypocalcaemia (all-grade AE) (900 mg, n = 9): 1 (11.1) n (%)
Hypokalaemia (all-grade AE) (900 mg, n = 9): 2 (22.2) n (%)
Hypomagnesaemia (all-grade AE) (900 mg, n = 9): 1 (11.1) n (%)
Hypophosphataemia (all-grade AE) (900 mg, n = 9): 2 (22.2) n (%)
Hypotension (all-grade AE) (900 mg, n = 9): 2 (22.2) n (%)
Maculopapular rash (all-grade AE) (900 mg, n = 9): 1 (11.1) n (%)
Nausea (all-grade AE) (900 mg, n = 9): 2 (22.2) n (%)
Oedema peripheral (all-grade AE) (900 mg, n = 9): 2 (22.2) n (%)
Patients with any AE (all-grade AE) (900 mg, n = 9): 9 (100.0) n (%)
Pneumonia (all-grade AE) (900 mg, n = 9): 0 n (%)
Pyrexia (all-grade AE) (900 mg, n = 9): 3 (33.3) n (%)
Rash (all-grade AE) (900 mg, n = 9): 2 (22.2) n (%)
Renal failure acute (all-grade AE) (900 mg, n = 9): 0 n (%)
Stomatitis (all-grade AE) (900 mg, n = 9): 0 n (%)
Vision blurred (all-grade AE) (900 mg, n = 9): 0 n (%)
Vomiting (all-grade AE) (900 mg, n = 9): 1 (11.1) n (%)
Abdominal pain (all-grade AE) (Total N = 32): 6 (18.8) n (%)
Asthenia (all-grade AE) (Total N = 32): 5 (15.6) n (%)
Chills (all-grade AE) (Total N = 32): 4 (12.5) n (%)
Cough (all-grade AE) (Total N = 32): 8 (25.0) n (%)
Decreased appetite (all-grade AE) (Total N = 32): 4 (12.5) n (%)
Dehydration (all-grade AE) (Total N = 32): 4 (12.5) n (%)
Diarrhoea (all-grade AE) (Total N = 32): 14 (43.8) n (%)
Dyspnoea (all-grade AE) (Total N = 32): 7 (21.9) n (%)
Fatigue (all-grade AE) (Total N = 32): 10 (31.3) n (%)
Febrile neutropenia (all-grade AE) (Total N = 32): 9 (28.1) n (%)
Headache (all-grade AE) (Total N = 32): 4 (12.5) n (%)
Hyperglycaemia (all-grade AE) (Total N = 32): 5 (15.6) n (%)
Hypocalcaemia (all-grade AE) (Total N = 32): 7 (21.9) n (%)
Hypokalaemia (all-grade AE) (Total N = 32): 7 (21.9) n (%)
Hypomagnesaemia (all-grade AE) (Total N = 32): 7 (21.9) n (%)
Hypophosphataemia (all-grade AE) (Total N = 32): 6 (18.8) n (%)
Hypotension (all-grade AE) (Total N = 32): 10 (31.3) n (%)
Maculopapular rash (all-grade AE) (Total N = 32): 4 (12.5) n (%)
Nausea (all-grade AE) (Total N = 32): 15 (46.9) n (%)
Oedema peripheral (all-grade AE) (Total N = 32): 9 (28.1) n (%)
Patients with any AE (all-grade AE) (Total N = 32): 31 (96.9) n (%)
Pneumonia (all-grade AE) (Total N = 32): 6 (18.8) n (%)
Pyrexia (all-grade AE) (Total N = 32): 4 (12.5) n (%)
Rash (all-grade AE) (Total N = 32): 4 (12.5) n (%)
Renal failure acute (all-grade AE) (Total N = 32): 4 (12.5) n (%)
Stomatitis (all-grade AE) (Total N = 32): 5 (15.6) n (%)
Vision blurred (all-grade AE) (Total N = 32): 4 (12.5) n (%)
Vomiting (all-grade AE) (Total N = 32): 10 (31.3) n (%)
Deaths during the study (all attributed to disease progression): nine
ECG abnormalities (all doses): No clinically significant ECG abnormalities
Patients with DLTs (all doses): five
AEs judged possibly related to AZD1208, patients (all doses, 32 patients): 68.8%
AZD1208 discontinued as a result of SAEs and AEs, patients (all doses, 32 patients): 25%
Diarrhoea possibly related to AZD1208, patients (all doses, 32 patients): 21.9%
Diarrhoea, patients (all doses, 32 patients): 43.8%
Fatigue possibly related to AZD1208, patients (all doses, 32 patients): 18.8%
Gastrointestinal disorders AEs, patients (all doses, 32 patients): 87.5%
Grade ≥3 febrile neutropenia, patients (all doses, 32 patients): 28.1%
Grade ≥3 hypotension, patients (all doses, 32 patients): 18.8%
Grade ≥3 pneumonia, patients (all doses, 32 patients): 15.6%
Nausea possibly related to AZD1208, patients (all doses, 32 patients): 37.5%
Nausea, patients (all doses, 32 patients): 46.9%
Patients who experienced an AE (all doses, 32 patients): 96.9%
Patients with a grade ≥3 AE (all doses, 32 patients): 24 n
SAE abdominal pain, patients (all doses, 32 patients): 6.3%
SAE back pain, patients (all doses, 32 patients): 6.3%
SAE febrile neutropenia, patients (all doses, 32 patients): 25.0%
SAE hypotension, patients (all doses, 32 patients): 6.3%
SAE maculopapular rash, patients (all doses, 32 patients): 6.3%
Serious AEs (SAEs), patients (all doses, 32 patients): 71.9%
Treatment-related SAEs, patients (all doses, 32 patients): 15.6%
Vomiting possibly related to AZD1208, patients (all doses, 32 patients): 18.8%
Time of DLT occurrence after the start of treatment (five patients with DLTs): 1 to 10 days
Doses generally tolerated (heavily pretreated AML, QD oral): up to 700 mg
